A melting point compilation (Tetko et al.; mined from patent text by program, amines drawn as free bases though some values may be those of a salt)

Structure (SMILES)	melting point [°C]
CC(C)CNC(=NC#N)Nc1cccnc1	148 to 149
CS(=O)(=O)c1ccc(-c2c(F)c3cccccc-3c2-c2ccccc2)cc1	120 to 122
COc1cc(COc2nn(-c3ccccc3)cc2/C=C/C(=O)N(C)OC)ccc1OCc1nc(-c2ccco2)oc1C	173 to 174
CCC(COCc1ccc(C#N)cc1)n1cnc2c(N)nc3ccccc3c21 (stereo not given)	160 to 161
CCn1nc(C)cc1C(=O)OC	130 to 133
COC(=O)c1cc(N=NN(C)C)cs1	90 to 92
O=C(O)CCCCNc1ccccc1-c1ccccc1	73 to 75
Cc1ccc(N=C(Nc2ccc(C)cc2)ON2C(C)(C)CC(O)CC2(C)C)cc1	124 to 126
CC1(C)CCC(C)(C)c2cc(-c3cc(C=CC(=O)O)ccc3O)c(OCc3ccc(Cl)cc3)cc21	147 to 149
CCNc1nc2c(N)nc3ccccc3c2n1CC(C)C	188 to 190
Cc1c(C2=NOC(CN3CCC(Cc4ccc(F)cc4)CC3)C2)cc2oc(=O)[nH]c2c1Cl (stereo not given)	131 to 132
CCCN(C(=O)COc1c(OC)cccc1OC)C1CCc2c(ccc(O)c2O)C1 (stereo not given)	157 to 158
CCCn1c(-n2nc(-c3c(-c4ccccc4)nn4ccccc34)ccc2=O)cc(=O)n(CCC)c1=O	155
CC(C)(CO)Cc1ccc(CC(C)(C)CO)cc1	104 to 105
OCc1sc(Cl)nc1C(F)(F)F	39 to 45
CCCNCCOc1ccc(NC(=O)c2n[nH]c3c2C(=O)CCC3)cn1	120
CC(=O)c1ccc(C2=NC[C@@H](OC(=O)Nc3ccccc3)[C@H](c3ccccc3)O2)cc1 (racemic)	168
COC(=O)N1CC[C@H](Nc2nc3cncnc3n2Cc2ccc(F)cc2)[C@H](C)C1 (relative stereo)	152
CC(=O)Nc1ccc(-c2nc3n(c2-c2ccc(NC(C)=O)cc2)CCS3)cc1	285 to 290
O=C(/C=C/c1ccccc1)NC1CCN(CCC2CCOc3ccccc32)CC1 (stereo not given)	168 to 170
CCCCNC(=O)Oc1ccccc1	39 to 40
CCC(=O)c1cc2c(Oc3ccc(Cl)cc3)cncc2s1	101 to 102
NC(=O)[C@H]1CN(c2ccc(I)c(F)c2)C(=O)O1	176 to 178
CCCCCCCCCCCCCCCC/C=C\OC[C@H](O)CO	55 to 56
O=C(O)C(c1ccc2c(c1)OCO2)n1nc(C2CC2)cc(-c2ccccc2)c1=O (stereo not given)	176

Structure (SMILES)	melting point [°C]
COc1cc(Br)c([N+](=O)[O-])cc1OC	120 to 122
CC(O)c1cccc(-c2ccc(CC34CCCN3C(=O)N(c3cc(Cl)cc(Cl)c3)C4=O)cc2)c1 (stereo not given)	66.5
O=C(CSc1ccc(C(F)(F)F)cn1)C12CC3CC(CC(C3)C1)C2	141 to 142
CC(C(=O)O)(c1ccccc1)N1CCC(c2noc3cc(F)ccc23)CC1 (stereo not given)	194 to 200
O=C(O)c1cc(Cl)ccc1COc1ccccc1	149 to 155
CC#Cc1ncn2c1CN(C)C(=O)c1c(Cl)cccc1-2	243 to 244
c1ccc(C(c2ccccc2)(c2ccccc2)N2CCCC2)cc1	126
Cc1ccc(Cc2cc3c(cc2/C=C/c2ccc(C(=O)O)cc2)C(C)(C)CCC3(C)C)cc1	216 to 217
Cc1c(N=C2NCCN2)cc(Br)cc1NS(C)(=O)=O	262
Nc1cc(C(=O)O)cc(OCc2ccc(Cl)cc2)c1C(=O)c1ccccc1	248 to 249
COC(=O)COc1ccc([N+](=O)[O-])cc1	98 to 99
C(=Cc1ccccc1)CN1CCN(C2c3ccccc3Sc3ccccc32)CC1	115 to 117
Cc1cc(Cl)cc(NC(=O)Cc2ccc(OC3(C(=O)O)CCCC3C)cc2)c1 (stereo not given)	180 to 182
CN1N=C(c2ccc(F)cc2)c2ccc(C(F)(F)F)cc2CS1(=O)=O	160 to 162
CC(/C=C/c1ccsc1-c1cc2c(cc1C)C(C)(C)CCC2(C)C)=C\C(=O)O	194 to 195
COC(=O)CP(=O)(O)C(CCCc1ccccc1)NC(=O)OCc1ccccc1 (stereo not given)	107 to 109
Cc1c(CNCC2CCOCC2)n(C)c2c(F)c(NC(=O)c3ccc(OC[C@@H]4CCCO4)cc3)ccc12	132 to 134
CCOC(=O)c1cn(-c2ccc(F)cc2F)c2cc(F)c(F)c(C)c2c1=O	161 to 164
COc1ccccc1Oc1c(NS(=O)(=O)c2ccc3ccccc3c2)nc(N2CCOCC2)nc1OCCOc1ncc(Br)cn1	178 to 182
CC1(C)N(CC(N)=O)C(=O)CN1C(=O)CN1CCCC1=O	225 to 227
Clc1ccc2c(c1)N(C1CN3CCC1CC3)c1ccccc1S2 (stereo not given)	165
COC1(c2cc(F)cc(Sc3ccc4c(c3)SCC(=O)N4C)c2)CCOCC1	131 to 133
CCC1(CC)c2cc(-c3ccc4c(c3)C(CC)(CC)c3cc(N(c5ccccc5)c5ccccc5)ccc3-4)ccc2-c2ccc(-c3nc4ccccc4s3)cc21	217 to 218
CC(C)(C)C(=O)NC#N	112 to 118
CC1SC(=O)C=NC1=O (stereo not given)	81 to 83
